Assay results taken from ChEMBL document CHEMBL5365467 (J Med Chem, 2023).
The source made the active and inactive calls. No cut-off for these calls is given here.

Columns and labels:
VCaP [1] = test: Downregulation of PLOD2 protein expression in human VCaP cells at 10 uM measured for 24 hrs by proteomics analysis; assay type: functional, cell-based
VCaP [2] = test: Downregulation of PCLAF protein expression in human VCaP cells at 10 uM measured for 24 hrs by proteomics analysis; assay type: functional, cell-based
[3] = molecular target: Protein cereblon/Androgen receptor (Homo sapiens, UniProt P10275+Q96SW2); test: PROTAC activity at AR/CRBN in AR-positive human VCaP cells assessed as induction of androgen receptor degradation measured at 24 hrs; assay type: cell-based
VCaP [4] = test: Downregulation of HAUS8 protein expression in human VCaP cells at 10 uM measured for 24 hrs by proteomics analysis; assay type: functional, cell-based
[5] = Clearance in Sprague-Dawley rat at 1 mg/kg, iv measured upto 24 hrs by LC-MS/MS analysis; assay type: ADME, organism-based; settings: in vivo
[6] = Cmax in Sprague-Dawley rat at 3 mg/kg, po measured upto 24 hrs by LC-MS/MS analysis; assay type: ADME, organism-based; set-up: dose 3 mg/kg, time < 24 hrs, route po; settings: in vivo
[7] = AUC (0 to t) in Sprague-Dawley rat at 3 mg/kg, po measured upto 24 hrs by LC-MS/MS analysis; assay type: ADME, organism-based; set-up: dose 3 mg/kg, time < 24 hrs, route po; settings: in vivo
Androgen receptor = molecular target: T1, Androgen receptor (Homo sapiens, UniProt P10275)
T1 sequence (P10275 whole entry): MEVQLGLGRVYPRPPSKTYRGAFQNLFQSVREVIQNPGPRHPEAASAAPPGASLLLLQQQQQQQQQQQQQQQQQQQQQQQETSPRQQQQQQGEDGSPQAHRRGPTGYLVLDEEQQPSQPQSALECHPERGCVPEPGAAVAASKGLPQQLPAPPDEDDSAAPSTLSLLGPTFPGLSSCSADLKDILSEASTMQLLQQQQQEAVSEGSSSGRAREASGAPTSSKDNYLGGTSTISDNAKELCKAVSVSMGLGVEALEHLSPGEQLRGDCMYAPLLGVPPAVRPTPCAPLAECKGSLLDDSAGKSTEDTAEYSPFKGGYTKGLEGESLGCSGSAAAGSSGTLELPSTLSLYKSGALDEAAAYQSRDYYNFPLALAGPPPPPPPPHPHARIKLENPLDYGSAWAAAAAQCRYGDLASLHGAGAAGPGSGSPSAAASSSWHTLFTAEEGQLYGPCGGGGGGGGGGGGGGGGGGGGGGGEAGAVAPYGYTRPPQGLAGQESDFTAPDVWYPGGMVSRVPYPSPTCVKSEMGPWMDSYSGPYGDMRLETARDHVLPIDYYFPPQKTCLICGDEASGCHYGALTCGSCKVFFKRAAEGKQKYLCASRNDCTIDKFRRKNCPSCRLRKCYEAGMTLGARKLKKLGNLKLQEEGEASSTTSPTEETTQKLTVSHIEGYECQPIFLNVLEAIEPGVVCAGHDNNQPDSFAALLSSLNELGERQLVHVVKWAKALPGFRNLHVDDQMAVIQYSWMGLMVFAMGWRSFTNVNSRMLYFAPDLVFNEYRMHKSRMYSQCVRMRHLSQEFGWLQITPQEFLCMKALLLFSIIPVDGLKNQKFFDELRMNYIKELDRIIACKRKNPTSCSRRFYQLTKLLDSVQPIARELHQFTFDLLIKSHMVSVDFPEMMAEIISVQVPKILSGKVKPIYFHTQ

[8] = Half life in Sprague-Dawley rat at 3 mg/kg, po measured upto 24 hrs by LC-MS/MS analysis; assay type: ADME, organism-based; settings: in vivo
[9] = Oral bioavailability in Sprague-Dawley rat at 3 mg/kg measured upto 24 hrs by LC-MS/MS analysis; assay type: ADME, organism-based; settings: in vivo
[10] = Volume of distribution at steady state in Sprague-Dawley rat at 1 mg/kg, iv measured upto 24 hrs by LC-MS/MS analysis; assay type: ADME, organism-based; settings: in vivo, read-out: Vdss
[11] = AUC (0 to t) in Sprague-Dawley rat at 1 mg/kg, iv measured upto 24 hrs by LC-MS/MS analysis; assay type: ADME, organism-based; set-up: dose 1 mg/kg, time < 24 hrs, route iv; settings: in vivo
[12] = Half life in Sprague-Dawley rat at 1 mg/kg, iv measured upto 24 hrs by LC-MS/MS analysis; assay type: ADME, organism-based; settings: in vivo
VCaP [13] = test: Antitumor activity against human VCaP cells xenografted in CB17-SCID mouse assessed as tumor growth inhibition at 10 mg/kg, po administered for 21 days; assay type: functional; settings: 504 h, time 21 day, read-out: TGI
VCaP [14] = test: Growth inhibition in human VCaP cells
LNCaP = test: Growth inhibition in human LNCaP cells assessed as reduction in cell viability

Chain of Protein cereblon/Androgen receptor (Q96SW2 whole entry, one chain of several): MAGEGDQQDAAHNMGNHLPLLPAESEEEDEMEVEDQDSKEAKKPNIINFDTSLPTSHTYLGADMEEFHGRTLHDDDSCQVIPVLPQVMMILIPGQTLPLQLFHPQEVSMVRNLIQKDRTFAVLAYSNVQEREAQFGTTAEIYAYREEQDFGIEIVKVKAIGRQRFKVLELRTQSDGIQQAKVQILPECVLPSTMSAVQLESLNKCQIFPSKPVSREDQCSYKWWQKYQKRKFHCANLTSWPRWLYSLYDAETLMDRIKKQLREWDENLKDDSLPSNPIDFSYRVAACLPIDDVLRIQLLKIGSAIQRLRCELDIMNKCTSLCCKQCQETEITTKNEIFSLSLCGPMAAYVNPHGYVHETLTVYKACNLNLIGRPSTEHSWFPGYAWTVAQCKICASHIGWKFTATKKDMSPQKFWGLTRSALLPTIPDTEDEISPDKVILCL

| Structure (SMILES) | Activity (VCaP [1]) | Activity (VCaP [2]) | DC50 [3] | Activity (VCaP [4]) | clearance [5] [L/h/kg] | Cmax [6] [µg/mL] | AUC(0-t) at 24 h [7] [µg·h/mL] | IC50 (Androgen receptor) [µM] | half-life [8] [h] | bioavailability [9] [%] | Vd [10] [L/kg] | AUC(0-t) at 24 h [11] [µg·h/mL] | half-life [12] [h] | inhibition in vivo at 10 mg/kg (VCaP [13]) [%] | IC50 (VCaP [14]) [µM] | IC50 (LNCaP) [µM] |
| --- | --- | --- | --- | --- | --- | --- | --- | --- | --- | --- | --- | --- | --- | --- | --- | --- |
| C[C@H]1CC2(CCN(c3ccc(C(=O)N4CCN(C)CC4)cc3)CC2)CN1c1ccc(C#N)c(Cl)c1 | inactive | inactive | Not Active | inactive | – | – | – | – | – | – | – | – | – | – | – | – |
| CN(c1ccc(C#N)c(Cl)c1)[C@H]1CC[C@H](NC(=O)c2ccc(N3CCN(C4CN(c5ccc6c(c5)C(=O)N(C5CCC(=O)NC5=O)C6=O)C4)CC3)cc2)CC1 (stereo not given in full) | – | – | – | – | 0.75 | 0.057 | 0.535 | 0.015 | 6.9 | 13 | 5.3 | 1.3 | 5.5 | – | – | – |
| N#Cc1ccc(O[C@H]2CC[C@H](NC(=O)c3ccc(N4CCC(CN5CCN(c6cc7c(cc6F)C(=O)N(C6CCC(=O)NC6=O)C7=O)CC5)CC4)nn3)CC2)cc1Cl (stereo not given in full) [BAVDEGALUTAMIDE] | – | – | – | – | 0.36 | 0.28 | 3.6 | – | 27.1 | 52 | 4.6 | 2.27 | 12 | 47 | 0.0162 | 0.0185 |
| CNC(=O)c1ccc(N2C(=S)N(c3ccc(C#N)c(C(F)(F)F)c3)C(=O)C2(C)C)cc1F [ENZALUTAMIDE] | – | – | – | – | – | – | – | – | – | – | – | – | – | – | – | 0.213 |
